What is called IC50 is the concentration that gives 50% inhibition.

Results on 8 compounds are retold here after article PMC6055169 (Proceedings of the National Academy of Sciences of the …, 2018).

Read-outs that look alike come from different tables or passages of the source.

Holding throughout (type): cell-based
Experiment [1] has as its target T1, TRPA1 (Mus musculus, UniProt Q8BLA8). The note with it: HEK293-A, read-out: % reduction at 50 μM.
The target of experiment [2] is T2, TRPV1 (Mus musculus, UniProt Q704Y3). The experiment is described as follows: Fluo-4 calcium imaging in transfected HEK293A cells, agonist at […].
The target of experiment [3] is T2, TRPV1. The note with it: HEK293-A, read-out: % reduction at 50 μM.
For experiment [4], the target named is T1, TRPA1. The following applies: HEK293-A, read-out: % reduction at 50 μM. This is another data set of the same source.
Experiment [5] addresses T2, TRPV1.
Experiment [6] has as its target T2, TRPV1. Nature of the experiment: Fluo-4 calcium imaging in TRPV1-transfected HEK293A cells, […].
The target of experiment [7] is T1, TRPA1. The experiment is described as follows: Fluo-4 calcium imaging in transfected HEK293A cells, agonist at […].
For the next experiment, the target named is TRPV4 (Rattus norvegicus, UniProt Q9ERZ8). Described as above.
Sequence of TRPV4 (Q9ERZ8 whole entry): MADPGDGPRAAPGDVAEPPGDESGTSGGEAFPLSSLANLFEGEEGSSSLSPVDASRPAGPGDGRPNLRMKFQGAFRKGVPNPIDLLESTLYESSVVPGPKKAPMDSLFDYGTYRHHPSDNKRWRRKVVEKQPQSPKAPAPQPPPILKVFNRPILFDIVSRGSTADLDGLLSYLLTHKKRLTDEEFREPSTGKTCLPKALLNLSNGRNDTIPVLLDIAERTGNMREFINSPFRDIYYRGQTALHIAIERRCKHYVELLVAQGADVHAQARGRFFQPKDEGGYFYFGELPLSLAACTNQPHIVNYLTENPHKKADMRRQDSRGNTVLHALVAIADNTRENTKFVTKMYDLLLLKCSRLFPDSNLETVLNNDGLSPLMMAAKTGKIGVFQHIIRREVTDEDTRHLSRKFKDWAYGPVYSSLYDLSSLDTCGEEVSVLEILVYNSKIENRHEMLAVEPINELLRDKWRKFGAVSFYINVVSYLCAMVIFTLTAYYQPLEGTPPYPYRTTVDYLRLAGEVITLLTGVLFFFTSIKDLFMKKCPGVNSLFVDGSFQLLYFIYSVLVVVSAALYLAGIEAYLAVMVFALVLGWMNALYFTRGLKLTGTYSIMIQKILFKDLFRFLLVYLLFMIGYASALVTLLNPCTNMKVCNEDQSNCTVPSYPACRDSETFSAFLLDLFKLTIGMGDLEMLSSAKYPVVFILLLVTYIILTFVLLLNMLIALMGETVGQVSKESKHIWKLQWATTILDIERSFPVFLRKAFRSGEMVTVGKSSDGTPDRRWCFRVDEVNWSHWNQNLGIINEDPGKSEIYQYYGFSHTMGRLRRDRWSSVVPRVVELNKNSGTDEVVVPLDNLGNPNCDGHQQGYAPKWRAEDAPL

T2 sequence (Q704Y3 whole entry): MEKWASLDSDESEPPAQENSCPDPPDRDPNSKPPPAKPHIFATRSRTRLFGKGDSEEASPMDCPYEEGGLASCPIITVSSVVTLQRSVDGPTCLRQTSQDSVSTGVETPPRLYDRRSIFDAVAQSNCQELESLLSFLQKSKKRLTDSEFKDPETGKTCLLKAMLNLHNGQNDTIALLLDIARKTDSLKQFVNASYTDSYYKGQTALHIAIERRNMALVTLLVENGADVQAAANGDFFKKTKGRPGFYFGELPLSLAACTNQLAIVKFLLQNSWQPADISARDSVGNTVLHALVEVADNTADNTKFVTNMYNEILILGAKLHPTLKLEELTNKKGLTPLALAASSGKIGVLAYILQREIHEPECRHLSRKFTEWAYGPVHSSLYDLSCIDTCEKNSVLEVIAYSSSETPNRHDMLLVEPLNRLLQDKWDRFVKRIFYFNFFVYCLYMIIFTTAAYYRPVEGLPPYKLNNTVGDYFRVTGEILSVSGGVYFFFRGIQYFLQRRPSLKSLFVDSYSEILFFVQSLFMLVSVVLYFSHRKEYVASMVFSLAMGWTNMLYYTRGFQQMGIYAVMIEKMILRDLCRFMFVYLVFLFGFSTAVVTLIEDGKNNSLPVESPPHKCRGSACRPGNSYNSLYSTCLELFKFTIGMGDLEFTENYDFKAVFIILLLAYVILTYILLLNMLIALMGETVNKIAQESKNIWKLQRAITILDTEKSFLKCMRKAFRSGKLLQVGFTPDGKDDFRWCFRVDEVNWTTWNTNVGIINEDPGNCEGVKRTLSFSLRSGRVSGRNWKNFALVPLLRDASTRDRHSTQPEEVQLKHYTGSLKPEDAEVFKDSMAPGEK
T1 sequence (Q8BLA8 whole entry): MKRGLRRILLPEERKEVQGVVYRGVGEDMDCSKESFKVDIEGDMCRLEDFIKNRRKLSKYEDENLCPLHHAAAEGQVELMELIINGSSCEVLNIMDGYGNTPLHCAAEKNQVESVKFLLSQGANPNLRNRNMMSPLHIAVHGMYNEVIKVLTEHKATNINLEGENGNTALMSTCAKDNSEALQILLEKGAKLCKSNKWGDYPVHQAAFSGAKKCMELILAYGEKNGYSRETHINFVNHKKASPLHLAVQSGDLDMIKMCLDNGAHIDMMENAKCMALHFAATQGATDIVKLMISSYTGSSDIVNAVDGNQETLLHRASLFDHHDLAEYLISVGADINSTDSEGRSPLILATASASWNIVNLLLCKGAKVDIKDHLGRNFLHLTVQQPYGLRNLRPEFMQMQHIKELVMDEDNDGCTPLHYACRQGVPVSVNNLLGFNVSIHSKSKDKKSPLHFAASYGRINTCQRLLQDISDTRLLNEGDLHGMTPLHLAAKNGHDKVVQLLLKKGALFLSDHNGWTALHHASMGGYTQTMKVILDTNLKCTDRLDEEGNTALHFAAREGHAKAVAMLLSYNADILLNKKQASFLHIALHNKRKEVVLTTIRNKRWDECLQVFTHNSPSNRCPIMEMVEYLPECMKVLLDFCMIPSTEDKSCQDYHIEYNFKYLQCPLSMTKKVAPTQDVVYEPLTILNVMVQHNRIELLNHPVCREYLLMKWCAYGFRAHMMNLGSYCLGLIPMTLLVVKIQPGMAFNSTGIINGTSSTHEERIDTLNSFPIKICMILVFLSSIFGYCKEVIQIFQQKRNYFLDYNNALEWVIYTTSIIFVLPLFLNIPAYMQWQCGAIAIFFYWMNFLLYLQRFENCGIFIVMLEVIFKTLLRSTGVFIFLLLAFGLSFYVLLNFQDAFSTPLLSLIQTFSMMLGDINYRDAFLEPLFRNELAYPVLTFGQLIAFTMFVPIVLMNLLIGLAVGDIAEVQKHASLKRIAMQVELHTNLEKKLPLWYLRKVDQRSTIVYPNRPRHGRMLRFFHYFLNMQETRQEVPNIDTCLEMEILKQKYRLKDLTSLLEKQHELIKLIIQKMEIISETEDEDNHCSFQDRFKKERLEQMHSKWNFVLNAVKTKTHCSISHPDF

Take `CCCCC/C=C\C/C=C\C/C=C\C/C=C\CCCC(=O)N[C@@H](CO)C(=O)O` [C20:4-Ser]: the inhibition at 50 µM on TRPA1 [1] turned out to be 68 ± 8%. Consider `COc1cc(CNC(=O)CCCC/C=C/C(C)C)ccc1O` [capsaicin], for which the “Fluo-4 calcium imaging in transfected HEK293A cells, agonist at 10 μM” value on TRPV1 [2] was “capsaicin treatment induced a robust increase in the intracellular calcium concentration in the TRPV1-transfected, RFP^+ cells”. Consider `CCCCCCCC/C=C\CCCCCCCC(=O)N[C@@H](CC(N)=O)C(=O)O` [C18:1-Asn], for which, on TRPV1 [3], the inhibition at 50 µM worked out at 49 ± 7%. Regarding `CCCCCCCC/C=C\CCCCCCCC(=O)N[C@@H](CCC(N)=O)C(=O)O` [C18:1-Gln, N-oleoyl-glutamine], at TRPA1 [4], the inhibition at 50 µM was 94 ± 5%. Also, on TRPV1 [5], it took 1.3 µM to reach half-maximal inhibition (IC50). For `CCCCC/C=C\C/C=C\C/C=C\C/C=C\CCCC(=O)N[C@@H](Cc1ccccc1)C(=O)O` [C20:4-Phe], the inhibition at 50 µM at TRPA1 [1] came to 87 ± 5%. As for `CCCCCCCC/C=C\CCCCCCCC(=O)N[C@H](CCC(N)=O)C(=O)O` [C18:1-D-Gln], at TRPV1 [6], the “Fluo-4 calcium imaging in TRPV1-transfected HEK293A cells, 50 μM” value is recorded as “the unnatural enantiomer C18:1-D-Gln fully antagonized capsaicin-induced TRPV1 calcium flux”.

Turning to `C=CCN=C=S` [allyl isothiocyanate], the “Fluo-4 calcium imaging in transfected HEK293A cells, agonist at 10 μM” value on TRPA1 [7] is given as “only channel-transfected, RFP^+ cells, but not untransfected, RFP^− cells, exhibited a calcium flux in response to the corresponding agonist”.

As to `CC(C)C[C@H](NC(=O)c1cc2ccccc2s1)C(=O)N1CCN(C(=O)[C@H](CO)NS(=O)(=O)c2ccc(Cl)cc2Cl)CC1` [GSK1016790A], the “Fluo-4 calcium imaging in transfected HEK293A cells, agonist at 0.2 μM” value on TRPV4 is “only channel-transfected, RFP^+ cells, but not untransfected, RFP^− cells, exhibited a calcium flux in response to the corresponding agonist”.
